Counter-ions that a name gives are not always drawn. Like-named read-outs stand apart in the source and are kept apart here.
Assays:
THP-1 TNFα release = test: LPS-stimulation of THP-1 cells, TNF-α by ELISA; assay type: cell-based; conditions: IC50 range, LPS 1 μg/ml, 6 hrs, read-out: Inhibitor activity versus THP-1 TNFα release
Description: THP-1 cells were plated in 100 μl at a density of 4×10^4 cells/well in V-bottomed 96 well tissue culture treated plates and incubated at 37° C. in 5% CO2 for 16 hrs. 2 hrs after the addition of the inhibitor in […], of tissue culture media, the cells were stimulated with LPS (E. coli strain 005:B5, Sigma) at a final concentration of 1 μg/ml and incubated at 37° C. in 5% CO2 for 6 hrs. TNF-α levels were measured from cell-free supernatants by sandwich ELISA (R&D Systems #QTA00B).

p38 MAP Kinase a = biological target: T1, p38 MAP Kinase a (Homo sapiens, UniProt Q16539); test: p38 MAP Kinase activity, radiometric filter-binding assay (Upstate); assay type: biochemical; conditions: IC50 range; ATP at or close to Km; read-out: Inhibitor activity versus p38 MAPKa
T1 construct: purchased Upstate (Dundee UK)
T1 sequence (Q16539 whole entry): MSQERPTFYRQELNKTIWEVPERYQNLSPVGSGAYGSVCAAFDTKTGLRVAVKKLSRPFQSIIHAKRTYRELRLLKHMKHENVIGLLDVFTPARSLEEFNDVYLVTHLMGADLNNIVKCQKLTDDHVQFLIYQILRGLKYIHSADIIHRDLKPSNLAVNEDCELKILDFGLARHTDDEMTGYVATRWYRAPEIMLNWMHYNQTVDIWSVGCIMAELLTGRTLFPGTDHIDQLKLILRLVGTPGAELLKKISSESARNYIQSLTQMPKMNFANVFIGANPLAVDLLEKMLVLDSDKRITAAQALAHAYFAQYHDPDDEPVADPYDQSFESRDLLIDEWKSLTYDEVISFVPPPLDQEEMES
Description: The ability of compounds to inhibit p38 MAP a Kinase activity was measured in an assay performed by Upstate (Dundee UK). In a final reaction volume of 25 μL, p38 MAP Kinase a (5-10 mU) is incubated with 25 mM Tris pH 7.5, 0.002 mMEGTA, 0.33 mg/mL myelin basic protein, 10 mM MgAcetate and [g-33P-ATP] (specific activity approx. 500 cpm/pmol, concentration as required). The reaction is initiated by the addition of the MgATP mix. After incubation for 40 minutes at room temperature, the reaction is stopped by the addition of 5 μL of a 3% phosphoric acid solution. 10 μL of the reaction is then spotted onto a P30 filtermat and washed three times for 5 minutes in 75 mM phosphoric acid and once in methanol prior to drying and scintillation counting.
Duplicate data points are generated from a ⅓ log dilution series of a stock solution in DMSO. Nine dilutions steps are made from a top concentration of 10 μM, and a ‘no compound’ blank is included. The standard radiometric filter-binding assay is performed at an ATP concentration at, or close to, the Km. Data from scintillation counts are collected and subjected to free-fit analysis by Prism software. From the curve generated, the concentration giving 50% inhibition is determined and reported.

Row | Molecule | IC50 (THP-1 TNFα release; Homo sapiens, THP-1) [nM] | IC50 (p38 MAP Kinase a) [nM] | IC50 (THP-1 TNFα release) [nM]
1 | CC(C)(C)OC(=O)[C@@H](NCCc1ccc(-n2c(N)c(C(=O)c3ccc(F)cc3)ccc2=O)cc1)c1ccccc1 [Example 62, tert-Butyl (2S)-{[2-(4-{6-amino-5-[(4-fluorophenyl)carbonyl]-2-oxopyridin-1(2H)-yl}phenyl)ethyl]amino}(phenyl)ethanoate] | 100 to 1000 | 100 to 1000 | –
2 | tert-Butyl(S)-(3-{4-[6-Amino-5-(4-difluoro benzoyl)-2-oxo-2H-pyridin-1-yl]-3,5-difluorophenoxy}propylamino)phenyl acetate [Example 45] | – | < 100 | < 100
3 | CC(C)C[C@@H](NCCCOc1cc(F)c(-n2c(N)c(C(=O)c3ccc(F)cc3F)ccc2=O)c(F)c1)C(=O)OC1CCCC1 [Example 50, Cyclopentyl N-(3-{4-[6-amino-5-(2,4-difluorobenzoyl)-2-oxopyridin-1(2H)-yl]-3,5-difluorophenoxy}propyl)-D-leucinate] | < 100 | < 100 | –
4 | Nc1c(C(=O)c2ccc(F)cc2)ccc(=O)n1-c1c(F)cc(OC2CCC(N[C@H](C(=O)OC3CCCC3)c3ccccc3)CC2)cc1F (stereo partly drawn) [Example 32, Cyclopentyl(2S)-[(4-{4-[6-amino-5-(4-fluorobenzoyl)-2-oxopyridin-1(2H)-yl]-3,5-difluorophenoxy}cyclohexyl)amino](phenyl)acetate] | < 100 | < 100 | –
5 | Nc1c(C(=O)c2ccc(F)cc2F)ccc(=O)n1-c1c(F)cc(OCCCN[C@H](C(=O)OC2Cc3ccccc3C2)c2ccccc2)cc1F [Example 40, 2,3-Dihydro-1H-inden-2-yl (2S)-[(3-{4-[6-amino-5-(2,4-difluorobenzoyl)-2-oxopyridin-1(2H)-yl]-3,5-difluorophenoxy}propyl)amino](phenyl)acetate] | < 100 | < 100 | –
6 | CC(C)C[C@H](NC(=O)COc1ccc(-n2c(N)c(C(=O)c3ccc(F)cc3)ccc2=O)cc1)C(=O)O [Example 110, N-({4-[6-Amino-5-(4-fluorobenzoyl)-2-oxopyridin-1(2H)-yl]phenoxy}-acetyl)-L-leucine] | – | 100 to 1000 | –
7 | CC(C)C[C@H](NCCCCCOc1cc(F)c(-n2c(N)c(C(=O)c3ccc(F)cc3)ccc2=O)c(F)c1)C(=O)O [Example 109, N-(5-{4-[6-amino-5-(4-fluorobenzoyl)-2-oxopyridin-1(2H)-yl]-3,5-difluorophenoxy}pentyl)-L-leucine] | – | < 100 | –
8 | CC(C)C[C@H](NCCCOc1ccc(-n2c(N)c(C(=O)c3ccc(F)cc3F)ccc2=O)cc1)C(=O)O [Example 96, (S)-2-(3-{4-[6-Amino-5-(2,4-difluorobenzoyl)-2-oxo-2H-pyridin-1-yl]phenoxy}propylamino)-4-methyl pentanoic acid] | – | < 100 | –
9 | CC(C)C[C@H](NCCCCCOc1cc(F)c(-n2c(N)c(C(=O)c3ccc(F)cc3F)ccc2=O)c(F)c1)C(=O)O [Example 116, N-(5-{4-[6-amino-5-(2,4-difluorobenzoyl)-2-oxopyridin-1(2H)-yl]-3,5-difluorophenoxy}pentyl)-L-leucine] | – | < 100 | –
10 | Nc1c(C(=O)c2ccc(F)cc2F)ccc(=O)n1-c1c(F)cc(OCCCN[C@@H](Cc2ccccc2)C(=O)O)cc1F [Example 100, (S)-2-(3-{4-[6-Amino-5-(2,4-difluorobenzoyl)-2-oxo-2H-pyridin-1-yl]-3,5-difluorophenoxy}-propylamino)-3-phenyl propionic acid] | – | < 100 | –
11 | Cc1cc(C(=O)c2ccc(=O)n(-c3c(F)cc(OCCCN[C@@H](CC(C)C)C(=O)O)cc3F)c2N)ccc1F [Example 98, (S)-2-(3-{4-[6-Amino-5-(4-fluoro-3-methylbenzoyl)-2-oxo-2H-pyridin-1-yl]-3,5-difluorophenoxy}propylamino)-4-methylpentanoic acid] | – | < 100 | –
12 | Nc1c(C(=O)c2ccc(F)cc2)ccc(=O)n1-c1c(F)cc(OCCCN[C@@H](Cc2ccccc2)C(=O)O)cc1F [Example 90] | – | < 100 | –
13 | Nc1c(C(=O)c2ccc(F)cc2)ccc(=O)n1-c1c(F)cc(OCCCN[C@H](C(=O)O)c2ccccc2)cc1F [Example 89] | – | < 100 | –
14 | CC(C)C[C@H](NC1CCC(Oc2cc(F)c(-n3c(N)c(C(=O)c4ccc(F)cc4)ccc3=O)c(F)c2)CC1)C(=O)O (stereo partly drawn) [Example 104, N-(4-{4-[6-amino-5-(4-fluorobenzoyl)-2-oxopyridin-1(2H)-yl]-3,5-difluorophenoxy}cyclohexyl)-L-leucine] | – | < 100 | –
15 | Nc1c(C(=O)c2ccc(F)cc2F)ccc(=O)n1-c1c(F)cc(OCCCN[C@H](C(=O)O)C2CCCCC2)cc1F [Example 107, (2S)-[(3-{4-[6-amino-5-(2,4-difluorobenzoyl)-2-oxopyridin-1(2H)-yl]-3,5-difluorophenoxy}propyl)amino](cyclohexyl)acetic acid] | – | < 100 | –

Further lines, with some results ahead:

Row | IC50 (THP-1 TNFα release; Homo sapiens, THP-1) [nM] | IC50 (p38 MAP Kinase a) [nM] | Molecule | IC50 (THP-1 TNFα release) [nM]
16 | 100 to 1000 | < 100 | Nc1c(C(=O)c2ccc(F)cc2F)ccc(=O)n1-c1ccc(CN[C@@H](Cc2ccccc2)C(=O)OC2CCCC2)cc1 [Example 8, Cyclopentyl(S)-2-{4-[6-Amino-5-(2,4-difluorobenzoyl)-2-oxo-2H-pyridin-1-yl]benzylamino}-3-phenylpropionate] | –
17 | – | 100 to 1000 | Nc1c(C(=O)c2ccc(F)cc2)ccc(=O)n1C1CCC(N[C@@H](Cc2ccccc2)C(=O)OC2CCCC2)CC1 (single isomer, unassigned) [Example 35] | > 1000
18 | < 100 | < 100 | Cc1cc(C(=O)c2ccc(=O)n(-c3c(F)cc(OCCCN[C@@H](Cc4ccccc4)C(=O)OC4CCCC4)cc3F)c2N)ccc1F [Example 18, Cyclopentyl(S)-2-(3-{4-[6-Amino-5-(4-fluoro-3-methylbenzoyl)-2-oxo-2H-pyridin-1-yl]-3,5-difluorophenoxy}propylamino)-3-phenylpropionate] | –
19 | 100 to 1000 | < 100 | Cc1cc(C(=O)c2ccc(=O)n(-c3ccc(OCCCN[C@H](C(=O)OC4CCCC4)c4ccccc4)cc3)c2N)ccc1F [Example 26] | –
20 | < 100 | < 100 | Nc1c(C(=O)c2ccc(F)cc2)ccc(=O)n1-c1c(F)cc(OC2CCC(N[C@@H](Cc3ccccc3)C(=O)OC3CCCC3)CC2)cc1F (stereo partly drawn) [Example 31, trifluoroacetate] | –
21 | < 100 | < 100 | Nc1c(C(=O)c2ccc(F)cc2)ccc(=O)n1-c1c(F)cc(OCCCN[C@@H](Cc2ccccc2)C(=O)OC2CCCC2)cc1F [Example 14] | –
22 | > 1000 | 100 to 1000 | Cc1cc(C(=O)c2ccc(=O)n(-c3ccc(CN[C@@H](CC(C)C)C(=O)OC4CCCC4)cc3)c2N)ccc1F [Example 6, Cyclopentyl(S)-2-{4-[6-Amino-5-(3-Methyl-4-fluorobenzoyl)-2-oxo-2H-pyridin-1-yl]benzylamino}-4-methylpentanoate] | –
23 | > 1000 | < 100 | Nc1c(C(=O)c2ccc(F)cc2F)ccc(=O)n1-c1ccc(CN[C@H](C(=O)OC2CCCC2)c2ccccc2)cc1 [Example 7, Cyclopentyl(S)-{4-[6-Amino-5-(2,4-difluorobenzoyl)-2-oxo-2H-pyridin-1-yl]benzylamino}phenylacetate] | –
24 | – | < 100 | CC(C)C[C@H](NCCc1ccc(-n2c(N)c(C(=O)c3ccc(F)cc3F)ccc2=O)cc1)C(=O)O [Example 117, N-[2-(4-{6-amino-5-[(2,4-difluorophenyl)carbonyl]-2-oxopyridin-1(2H)-yl}phenyl)ethyl]-L-leucine] | –
25 | – | < 100 | Nc1c(C(=O)c2ccc(F)cc2)ccc(=O)n1-c1ccc(CCN[C@H](C(=O)O)c2ccccc2)cc1 [Example 118] | –
26 | – | < 100 | Nc1c(C(=O)c2ccc(F)cc2F)ccc(=O)n1-c1ccc(CN[C@@H](Cc2ccccc2)C(=O)O)cc1 [Example 73, (S)-2-{4-[6-Amino-5-(2,4-difluorobenzoyl)-2-oxo-2H-pyridin-1-yl]benzylamino}-3-phenylpropionic acid] | –
27 | – | < 100 | Nc1c(C(=O)c2ccc(F)cc2F)ccc(=O)n1-c1ccc(OCCCN[C@H](C(=O)O)c2ccccc2)cc1 [Example 84, (S)-(3-{4-[6-Amino-5-(2,4-difluorobenzoyl)-2-oxo-2H-pyridin-1-yl]-phenoxy}propylamino)phenyl acetic acid] | –
28 | – | < 100 | Cc1cc(C(=O)c2ccc(=O)n(-c3ccc(OCCCN[C@@H](Cc4ccccc4)C(=O)O)cc3)c2N)ccc1F [Example 83, (S)-2-(3-{4-[6-Amino-5-(3-methyl-4-fluorobenzoyl)-2-oxo-2H-pyridin-1-yl]phenoxy}propylamino)-3-phenyl propionic acid] | –
29 | – | < 100 | Nc1c(C(=O)c2ccc(F)cc2)ccc(=O)n1-c1c(F)cc(OC2CCC(N[C@@H](Cc3ccccc3)C(=O)O)CC2)cc1F (stereo partly drawn) [Example 102] | –

Reference: patent publication US8044211B2 (Chroma Therapeutics Ltd., priority 2006, dated 2011)
